Activity calls are given as the source filed them. No cut-off for these calls is given here.
Tests used:
[1] = target: T1, Protein deacetylase HDAC6 (Mus musculus) (UniProt Q9Z2V5); assay: Inhibition of HDAC6 in mouse Neuro2a cells assessed as increase in acetylated alpha-tubulin levels incubated for 24 hrs by Western blot analysis; assay type: cell-based; details: dose 0.039-20 µM
T1 sequence (whole entry): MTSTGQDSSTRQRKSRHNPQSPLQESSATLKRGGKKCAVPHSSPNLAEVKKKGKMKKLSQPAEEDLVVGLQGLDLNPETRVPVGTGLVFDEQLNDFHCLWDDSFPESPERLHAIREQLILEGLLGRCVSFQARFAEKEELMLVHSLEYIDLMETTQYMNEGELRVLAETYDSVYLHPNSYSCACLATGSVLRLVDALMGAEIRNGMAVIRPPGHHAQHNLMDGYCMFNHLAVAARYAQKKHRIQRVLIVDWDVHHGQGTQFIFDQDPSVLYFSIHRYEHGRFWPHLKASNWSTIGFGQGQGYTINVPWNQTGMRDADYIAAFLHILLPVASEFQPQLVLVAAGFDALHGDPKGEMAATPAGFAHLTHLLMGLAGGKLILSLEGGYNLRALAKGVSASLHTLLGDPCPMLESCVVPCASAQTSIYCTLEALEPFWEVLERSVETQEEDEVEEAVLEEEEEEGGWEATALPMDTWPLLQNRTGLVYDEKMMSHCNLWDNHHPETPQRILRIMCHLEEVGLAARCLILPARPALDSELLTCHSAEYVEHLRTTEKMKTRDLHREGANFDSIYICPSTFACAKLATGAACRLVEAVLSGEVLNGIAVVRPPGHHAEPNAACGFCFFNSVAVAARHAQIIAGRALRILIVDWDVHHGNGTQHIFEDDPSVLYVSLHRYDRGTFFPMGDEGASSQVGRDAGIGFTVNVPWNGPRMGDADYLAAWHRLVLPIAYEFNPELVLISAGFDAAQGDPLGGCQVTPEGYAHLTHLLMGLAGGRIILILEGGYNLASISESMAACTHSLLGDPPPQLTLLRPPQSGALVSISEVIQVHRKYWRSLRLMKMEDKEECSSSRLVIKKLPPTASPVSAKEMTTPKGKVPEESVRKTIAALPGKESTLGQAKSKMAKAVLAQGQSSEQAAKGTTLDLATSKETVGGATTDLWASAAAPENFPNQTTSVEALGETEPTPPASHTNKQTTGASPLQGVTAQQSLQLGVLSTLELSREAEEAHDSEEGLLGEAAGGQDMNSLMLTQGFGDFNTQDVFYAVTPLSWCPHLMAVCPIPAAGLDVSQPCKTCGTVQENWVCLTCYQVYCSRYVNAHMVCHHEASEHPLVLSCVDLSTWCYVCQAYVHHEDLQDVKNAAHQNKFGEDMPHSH

[2] = tested on: N2a; assay: Cytotoxicity against mouse Neuro2a cells assessed as reduction in cell viability at 20 uM incubated for 24 hrs by Cell Titer-Glo 2.0 Luminescent cell assay; assay type: cell-based
[3] = target: Histone deacetylase; assay: Inhibition of HDAC in human HeLa nuclear extracts using Boc-Lys (acetyl)-AMC as substrate preincubated for 5 mins followed by substrate addition and further incubated for 30 mins by fluorescence based assay; assay type: subcellular, Nucleus
[4] = target: Histone deacetylase 4 (Homo sapiens, UniProt P56524); assay: Inhibition of N-terminal GST-tagged and C-terminal His-tagged human HDAC4 (627 to 1084 residues) expressed in baculovirus infected Sf9 cells using Boc Lys(TFA)-AMC as substrate preincubated for 5 mins followed by substrate addition and further incubated for 30 mins by fluorogenic assay
Histone deacetylase 4, sequence (P56524 whole entry, the tested form may be a part): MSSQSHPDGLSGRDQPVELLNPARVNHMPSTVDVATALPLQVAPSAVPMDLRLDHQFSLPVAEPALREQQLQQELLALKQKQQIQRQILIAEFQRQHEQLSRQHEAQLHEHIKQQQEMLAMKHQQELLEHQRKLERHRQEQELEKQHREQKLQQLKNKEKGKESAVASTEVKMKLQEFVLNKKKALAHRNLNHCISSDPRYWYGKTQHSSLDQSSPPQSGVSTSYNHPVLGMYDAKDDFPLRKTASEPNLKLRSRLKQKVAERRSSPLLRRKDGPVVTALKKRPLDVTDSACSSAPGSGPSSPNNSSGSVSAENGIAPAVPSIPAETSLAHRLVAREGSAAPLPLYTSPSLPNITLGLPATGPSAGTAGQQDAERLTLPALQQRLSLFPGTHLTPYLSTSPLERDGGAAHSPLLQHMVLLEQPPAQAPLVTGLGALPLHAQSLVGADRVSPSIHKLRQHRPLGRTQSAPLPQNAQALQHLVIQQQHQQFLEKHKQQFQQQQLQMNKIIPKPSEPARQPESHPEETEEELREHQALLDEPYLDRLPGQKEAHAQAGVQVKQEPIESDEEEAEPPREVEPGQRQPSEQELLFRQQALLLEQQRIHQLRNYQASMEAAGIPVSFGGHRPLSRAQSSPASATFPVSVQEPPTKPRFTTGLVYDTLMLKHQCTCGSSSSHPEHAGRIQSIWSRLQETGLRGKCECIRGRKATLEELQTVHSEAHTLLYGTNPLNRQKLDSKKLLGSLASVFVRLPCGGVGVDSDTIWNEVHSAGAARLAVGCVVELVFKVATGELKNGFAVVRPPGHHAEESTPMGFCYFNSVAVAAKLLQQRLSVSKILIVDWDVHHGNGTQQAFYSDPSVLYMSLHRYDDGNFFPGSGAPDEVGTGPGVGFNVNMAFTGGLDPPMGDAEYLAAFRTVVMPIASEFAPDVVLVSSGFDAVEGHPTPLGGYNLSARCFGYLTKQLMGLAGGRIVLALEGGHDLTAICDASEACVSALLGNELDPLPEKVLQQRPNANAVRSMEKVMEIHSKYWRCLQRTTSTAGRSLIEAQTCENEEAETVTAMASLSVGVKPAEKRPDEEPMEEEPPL

[5] = target: T2, Histone deacetylase 7 (Homo sapiens, UniProt Q8WUI4); assay: Inhibition of N-terminal GST-tagged human HDAC7 (518 to end residues) expressed in baculovirus-infected Sf9 cells using Boc Lys(TFA)-AMC as substrate preincubated for 5 mins followed by substrate addition and further incubated for 30 mins by fluorogenic assay
T2 sequence (Q8WUI4 whole entry): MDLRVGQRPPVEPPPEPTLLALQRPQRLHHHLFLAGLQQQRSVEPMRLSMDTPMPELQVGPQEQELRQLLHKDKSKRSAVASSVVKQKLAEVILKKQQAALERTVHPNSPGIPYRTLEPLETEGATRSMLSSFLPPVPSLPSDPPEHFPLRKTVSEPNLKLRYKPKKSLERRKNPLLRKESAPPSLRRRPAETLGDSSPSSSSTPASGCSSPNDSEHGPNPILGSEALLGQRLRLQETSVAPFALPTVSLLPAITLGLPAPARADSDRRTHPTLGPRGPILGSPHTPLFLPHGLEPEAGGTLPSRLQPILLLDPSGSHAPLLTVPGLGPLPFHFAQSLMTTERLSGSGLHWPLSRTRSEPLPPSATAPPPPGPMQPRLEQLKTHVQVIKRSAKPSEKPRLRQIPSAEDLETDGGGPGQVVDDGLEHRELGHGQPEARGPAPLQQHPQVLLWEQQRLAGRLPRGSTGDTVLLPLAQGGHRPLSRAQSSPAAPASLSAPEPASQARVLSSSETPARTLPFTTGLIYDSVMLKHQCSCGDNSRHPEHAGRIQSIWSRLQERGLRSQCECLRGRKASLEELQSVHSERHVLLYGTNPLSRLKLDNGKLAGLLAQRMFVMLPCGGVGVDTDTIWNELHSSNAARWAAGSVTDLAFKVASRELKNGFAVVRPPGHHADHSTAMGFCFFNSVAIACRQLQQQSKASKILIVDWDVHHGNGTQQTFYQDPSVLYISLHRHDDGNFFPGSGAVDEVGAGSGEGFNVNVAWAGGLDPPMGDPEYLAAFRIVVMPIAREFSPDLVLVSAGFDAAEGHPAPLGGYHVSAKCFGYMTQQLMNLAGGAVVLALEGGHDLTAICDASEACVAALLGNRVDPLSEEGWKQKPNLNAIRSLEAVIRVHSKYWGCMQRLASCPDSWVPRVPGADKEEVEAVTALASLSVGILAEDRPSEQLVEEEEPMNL

[6] = target: Histone deacetylase 9 (Homo sapiens, UniProt Q9UKV0); assay: Inhibition of C-terminal His-tagged human HDAC9 (604 to 1066 residues) expressed in baculovirus-infected Sf9 cells using Boc Lys(TFA)-AMC as substrate preincubated for 5 mins followed by substrate addition and further incubated for 30 mins by fluorogenic assay
Histone deacetylase 9, sequence (Q9UKV0 whole entry, the tested form may be a part): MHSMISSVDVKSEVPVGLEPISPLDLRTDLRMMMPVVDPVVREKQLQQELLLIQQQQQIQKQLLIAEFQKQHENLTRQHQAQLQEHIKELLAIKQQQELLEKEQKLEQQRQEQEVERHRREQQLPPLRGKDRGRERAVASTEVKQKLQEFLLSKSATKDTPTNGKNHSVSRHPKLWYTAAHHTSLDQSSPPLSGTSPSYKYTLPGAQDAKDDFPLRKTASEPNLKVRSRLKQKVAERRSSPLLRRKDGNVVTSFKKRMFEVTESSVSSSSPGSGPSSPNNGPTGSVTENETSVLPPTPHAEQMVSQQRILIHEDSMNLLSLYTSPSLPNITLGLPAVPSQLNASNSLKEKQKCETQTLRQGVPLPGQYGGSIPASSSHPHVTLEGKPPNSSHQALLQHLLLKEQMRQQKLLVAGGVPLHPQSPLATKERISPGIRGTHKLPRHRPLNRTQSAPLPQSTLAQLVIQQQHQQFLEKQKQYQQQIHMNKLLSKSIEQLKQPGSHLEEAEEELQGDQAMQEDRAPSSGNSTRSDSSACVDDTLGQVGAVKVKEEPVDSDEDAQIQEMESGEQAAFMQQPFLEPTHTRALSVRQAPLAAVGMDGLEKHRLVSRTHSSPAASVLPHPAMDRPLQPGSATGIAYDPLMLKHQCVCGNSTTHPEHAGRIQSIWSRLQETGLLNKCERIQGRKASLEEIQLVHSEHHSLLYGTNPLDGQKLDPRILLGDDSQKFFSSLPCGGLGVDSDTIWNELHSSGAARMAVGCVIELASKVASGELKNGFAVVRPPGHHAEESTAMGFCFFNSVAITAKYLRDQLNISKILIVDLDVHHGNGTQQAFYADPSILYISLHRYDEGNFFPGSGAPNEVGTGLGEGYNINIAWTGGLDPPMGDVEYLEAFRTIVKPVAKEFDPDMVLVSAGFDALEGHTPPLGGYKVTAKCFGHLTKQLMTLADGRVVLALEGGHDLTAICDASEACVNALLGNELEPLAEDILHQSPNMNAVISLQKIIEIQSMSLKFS

[7] = target: T3, Protein deacetylase HDAC6 (Homo sapiens, UniProt Q9UBN7); assay: Inhibition of N-terminal GST-tagged full length human HDAC6 expressed in baculovirus-infected Sf9 cells using Boc-Lys (acetyl)-AMC as substrate preincubated for 5 mins followed by substrate addition and further incubated for 30 mins by fluorescence based assay
T3 sequence (Q9UBN7 whole entry): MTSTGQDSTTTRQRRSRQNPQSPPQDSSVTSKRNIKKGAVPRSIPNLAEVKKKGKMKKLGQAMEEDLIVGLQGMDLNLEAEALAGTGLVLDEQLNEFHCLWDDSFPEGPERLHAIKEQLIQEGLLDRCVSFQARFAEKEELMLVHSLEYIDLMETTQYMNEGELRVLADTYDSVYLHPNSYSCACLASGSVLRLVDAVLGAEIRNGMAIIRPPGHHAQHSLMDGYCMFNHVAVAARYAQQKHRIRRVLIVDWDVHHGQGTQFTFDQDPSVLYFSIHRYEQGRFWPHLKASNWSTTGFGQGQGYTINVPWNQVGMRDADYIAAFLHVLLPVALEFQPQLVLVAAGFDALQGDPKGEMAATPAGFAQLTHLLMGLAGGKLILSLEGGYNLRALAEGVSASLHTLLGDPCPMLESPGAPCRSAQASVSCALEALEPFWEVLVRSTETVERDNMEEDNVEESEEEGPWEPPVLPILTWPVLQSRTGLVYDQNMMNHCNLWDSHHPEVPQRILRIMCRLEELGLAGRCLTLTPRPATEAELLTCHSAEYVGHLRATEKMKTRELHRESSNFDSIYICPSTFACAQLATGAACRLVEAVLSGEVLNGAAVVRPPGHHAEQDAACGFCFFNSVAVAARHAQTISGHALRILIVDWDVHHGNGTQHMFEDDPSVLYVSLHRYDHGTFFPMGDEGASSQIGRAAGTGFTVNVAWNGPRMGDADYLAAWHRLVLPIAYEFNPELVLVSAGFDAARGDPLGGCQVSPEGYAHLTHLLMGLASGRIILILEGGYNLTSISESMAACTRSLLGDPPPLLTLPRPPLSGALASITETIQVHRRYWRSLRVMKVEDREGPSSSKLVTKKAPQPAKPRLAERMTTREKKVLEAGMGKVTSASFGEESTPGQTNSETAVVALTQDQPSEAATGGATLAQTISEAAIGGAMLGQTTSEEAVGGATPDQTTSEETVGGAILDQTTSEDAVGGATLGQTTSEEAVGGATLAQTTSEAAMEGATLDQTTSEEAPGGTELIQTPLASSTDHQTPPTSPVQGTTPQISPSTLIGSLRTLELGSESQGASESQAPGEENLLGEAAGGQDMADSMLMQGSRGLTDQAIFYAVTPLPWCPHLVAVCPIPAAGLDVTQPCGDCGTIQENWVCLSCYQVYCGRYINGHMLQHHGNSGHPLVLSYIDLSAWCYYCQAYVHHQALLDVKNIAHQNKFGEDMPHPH

[8] = target: Amyloid-beta precursor protein (Homo sapiens) (UniProt P05067); assay: Inhibition of amyloid beta (1 to 42) (unknown origin) aggregation upto 10 uM by ThT fluorescence assay; details: dose microM <=10
Amyloid-beta precursor protein (Homo sapiens), sequence (P05067 whole entry): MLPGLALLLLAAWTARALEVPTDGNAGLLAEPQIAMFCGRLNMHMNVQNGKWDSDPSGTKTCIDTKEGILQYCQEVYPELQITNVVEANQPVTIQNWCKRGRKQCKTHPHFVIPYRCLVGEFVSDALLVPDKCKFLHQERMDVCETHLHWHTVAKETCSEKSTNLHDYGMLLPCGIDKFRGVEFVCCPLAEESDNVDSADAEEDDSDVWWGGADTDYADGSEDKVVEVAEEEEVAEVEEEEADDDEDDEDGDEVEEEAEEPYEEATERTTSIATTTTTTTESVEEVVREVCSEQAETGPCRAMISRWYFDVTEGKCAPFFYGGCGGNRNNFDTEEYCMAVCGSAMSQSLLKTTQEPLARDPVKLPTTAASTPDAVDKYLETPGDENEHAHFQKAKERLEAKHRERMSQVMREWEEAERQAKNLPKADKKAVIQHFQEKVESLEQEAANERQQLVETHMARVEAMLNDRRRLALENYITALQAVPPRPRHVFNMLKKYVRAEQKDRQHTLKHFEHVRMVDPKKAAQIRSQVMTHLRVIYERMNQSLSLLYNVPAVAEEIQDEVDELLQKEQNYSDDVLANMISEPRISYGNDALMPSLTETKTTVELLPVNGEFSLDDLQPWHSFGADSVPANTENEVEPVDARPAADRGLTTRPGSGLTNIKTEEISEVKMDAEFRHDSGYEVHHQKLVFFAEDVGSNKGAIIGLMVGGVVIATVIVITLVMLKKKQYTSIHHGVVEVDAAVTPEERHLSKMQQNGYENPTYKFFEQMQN

[9] = target: Acetylcholinesterase (Homo sapiens) (UniProt P22303); assay: Inhibition of AChE (unknown origin)
[10] = target: Class 1 histone deacetylase (Mus musculus) (UniProt Q8VH37+O09106+P70288+O88895); assay: Inhibition of class I HDAC in mouse Neuro2a cells assessed as increase in acetylated histone H3 level at 0.039 to 20 uM incubated for 24 hrs by Western blot analysis; assay type: cell-based; details: dose 0.039-20 µM
Class 1 histone deacetylase (Mus musculus), sequence (O09106 whole entry, looked up): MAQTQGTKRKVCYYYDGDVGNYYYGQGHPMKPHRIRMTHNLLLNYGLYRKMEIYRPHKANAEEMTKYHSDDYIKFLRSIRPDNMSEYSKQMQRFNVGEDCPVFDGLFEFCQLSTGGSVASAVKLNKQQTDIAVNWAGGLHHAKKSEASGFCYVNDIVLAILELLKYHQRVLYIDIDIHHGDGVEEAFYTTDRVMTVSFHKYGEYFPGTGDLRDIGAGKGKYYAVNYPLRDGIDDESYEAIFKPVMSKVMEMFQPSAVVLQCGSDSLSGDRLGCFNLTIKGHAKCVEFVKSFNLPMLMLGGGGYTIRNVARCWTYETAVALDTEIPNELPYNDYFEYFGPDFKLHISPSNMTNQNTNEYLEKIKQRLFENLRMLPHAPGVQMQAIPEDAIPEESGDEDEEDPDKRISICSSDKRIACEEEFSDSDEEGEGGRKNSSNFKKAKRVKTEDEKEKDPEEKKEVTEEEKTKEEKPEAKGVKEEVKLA
Class 1 histone deacetylase (Mus musculus), sequence (O88895 whole entry, looked up): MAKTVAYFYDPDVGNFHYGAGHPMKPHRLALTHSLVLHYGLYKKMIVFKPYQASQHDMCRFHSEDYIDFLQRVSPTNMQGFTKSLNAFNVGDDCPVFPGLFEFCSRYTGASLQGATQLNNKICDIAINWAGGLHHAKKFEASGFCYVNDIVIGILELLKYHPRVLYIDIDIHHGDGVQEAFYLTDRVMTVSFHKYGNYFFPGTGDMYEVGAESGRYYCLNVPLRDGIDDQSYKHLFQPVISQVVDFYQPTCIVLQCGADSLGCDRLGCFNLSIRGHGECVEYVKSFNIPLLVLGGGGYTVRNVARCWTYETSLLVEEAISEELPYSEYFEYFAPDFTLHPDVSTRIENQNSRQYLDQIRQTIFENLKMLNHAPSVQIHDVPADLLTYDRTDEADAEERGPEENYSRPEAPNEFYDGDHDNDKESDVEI
Class 1 histone deacetylase (Mus musculus), sequence (P70288 whole entry, looked up): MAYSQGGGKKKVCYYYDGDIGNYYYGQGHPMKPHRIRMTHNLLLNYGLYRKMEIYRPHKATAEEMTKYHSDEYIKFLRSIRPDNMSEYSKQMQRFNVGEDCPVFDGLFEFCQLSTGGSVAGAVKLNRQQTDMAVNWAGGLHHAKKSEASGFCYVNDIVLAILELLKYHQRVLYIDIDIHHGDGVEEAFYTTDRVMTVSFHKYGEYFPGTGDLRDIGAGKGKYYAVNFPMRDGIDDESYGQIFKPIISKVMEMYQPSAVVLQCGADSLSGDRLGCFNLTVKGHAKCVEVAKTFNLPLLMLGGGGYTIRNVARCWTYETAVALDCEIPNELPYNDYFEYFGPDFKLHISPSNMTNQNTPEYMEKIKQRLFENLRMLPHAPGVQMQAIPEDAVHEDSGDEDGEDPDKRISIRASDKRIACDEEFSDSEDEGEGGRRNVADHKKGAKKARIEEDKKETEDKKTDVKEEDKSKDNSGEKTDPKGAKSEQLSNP
Class 1 histone deacetylase (Mus musculus), sequence (Q8VH37 whole entry, looked up): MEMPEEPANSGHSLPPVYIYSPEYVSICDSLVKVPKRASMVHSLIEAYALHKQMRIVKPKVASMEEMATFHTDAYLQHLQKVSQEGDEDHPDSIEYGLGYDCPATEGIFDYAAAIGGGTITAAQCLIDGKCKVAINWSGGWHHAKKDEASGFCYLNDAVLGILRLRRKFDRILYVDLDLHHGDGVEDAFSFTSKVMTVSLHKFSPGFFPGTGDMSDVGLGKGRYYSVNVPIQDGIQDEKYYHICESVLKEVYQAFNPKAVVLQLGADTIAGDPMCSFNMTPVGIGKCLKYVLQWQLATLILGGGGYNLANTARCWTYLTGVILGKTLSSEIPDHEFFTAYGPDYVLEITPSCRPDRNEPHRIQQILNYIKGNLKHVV

[11] = tested on: SH-SY5Y; assay: Neuroprotective activity against H2O2-induced cell death in human SH-SY5Y cells assessed as increase in cell viability incubated for 3 hrs by MTT assay; assay type: functional, cell-based; details: dose 2.5-40 µM
[12] = tested on: SH-SY5Y; assay: Neuroprotective activity against H2O2-induced cell death in human SH-SY5Y cells assessed as cell viability at 40 uM incubated for 3 hrs by MTT assay; assay type: functional; details: read-out: Activity
[13] = tested on: SH-SY5Y; assay: Induction of neurite outgrowth in human SH-SY5Y cells at 2.5 uM incubated for 5 days by immunostaining analysis; assay type: functional, cell-based; details: time 5.0 day
[14] = tested on: SH-SY5Y; assay: Induction of neurite outgrowth in human SH-SY5Y cells incubated for 5 days by immunostaining analysis; assay type: functional, cell-based; details: dose 1.25-5 µM, time 5.0 day

O=C(NO)c1ccc(CN2c3ccccc3Sc3ccccc32)cc1
inhibition [1]: Dose-Dependent Effect
Activity [2]: Non-Toxic

CSc1ccc2c(c1)N(Cc1ccc(C(=O)NO)cc1)c1ccccc1[S+]2[O-] (configuration not stated)
IC50 [3]: 1.68 µM
IC50 [4]: > 40 µM
IC50 [5]: > 40 µM
IC50 [6]: 0.72 µM
IC50 [7]: 0.0359 µM

COc1ccc2c(c1)N(Cc1ccc(C(=O)NO)cc1)c1ccccc1S2
IC50 [3]: 0.35 µM
IC50 [4]: 4.76 µM
IC50 [5]: 1.55 µM
IC50 [6]: 29.7 µM
IC50 [7]: 0.0189 µM

C/C(=N\O)c1ccc2c(c1)N(Cc1ccc(C(=O)NO)cc1)c1ccccc1S2
IC50 [3]: 0.33 µM
IC50 [4]: 3.85 µM
IC50 [5]: 1.09 µM
IC50 [6]: 4.34 µM
IC50 [7]: 0.0108 µM

NC(=O)c1ccc2c(c1)N(Cc1ccc(C(=O)NO)cc1)c1ccccc1S2
inhibition [8]: inactive
inhibition [9]: inactive
inhibition [10]: Active
inhibition [1]: Dose-Dependent Effect
Activity [2]: Non-Toxic
Activity [11]: Dose-Dependent Effect
viability at 40 µM [12]: 70.8%
Activity [13]: Active
Activity [14]: Dose-Dependent Effect

NC(=O)c1ccc2c(c1)N(Cc1ccc(/C=C/C(=O)NO)cc1)c1ccccc1S2
IC50 [3]: 0.02 µM
IC50 [4]: 3.26 µM
IC50 [5]: 5.74 µM
IC50 [6]: 8.27 µM
IC50 [7]: 0.037 µM

O=C(NO)c1ccc(CN2c3ccccc3[S+]([O-])c3ccccc32)cc1
IC50 [3]: 2.76 µM
IC50 [4]: 6.62 µM
IC50 [5]: 5.15 µM
IC50 [6]: 27.6 µM
IC50 [7]: 0.0205 µM

O=C(NO)c1ccc(CN2c3ccccc3Sc3ccc(C(F)(F)F)cc32)cc1
IC50 [3]: 0.84 µM
IC50 [4]: 7.59 µM
IC50 [5]: 2.24 µM
IC50 [6]: 2.58 µM
IC50 [7]: 0.0142 µM

O=C(NO)c1ccc(Nc2c3ccccc3nc3ccc(Br)cc23)cc1
IC50 [3]: 0.16 µM

O=C(NO)c1ccc(CN2c3ccccc3Sc3ccc(Cl)cc32)cc1
IC50 [3]: 0.29 µM
IC50 [4]: 3.6 µM
IC50 [5]: 1.36 µM
IC50 [6]: 0.35 µM
IC50 [7]: 0.0095 µM

NC(=O)c1ccc2c(c1)N(Cc1ccc(C(=O)NO)cc1)c1ccccc1[S+]2[O-] (configuration not stated)
IC50 [3]: 1.69 µM
IC50 [4]: 12.9 µM
IC50 [5]: 9.38 µM
IC50 [6]: 4.2 µM
IC50 [7]: 0.0143 µM

CSc1ccc2c(c1)N(Cc1ccc(C(=O)NO)cc1)c1ccccc1S2
IC50 [3]: 0.68 µM
IC50 [4]: 5.8 µM
IC50 [5]: 2.25 µM
IC50 [6]: 3.26 µM
IC50 [7]: 0.0094 µM

From ChEMBL document CHEMBL4819073, “Synthesis and biological evaluation of phenothiazine derivative-containing hydroxamic acids as potent class II histone deacetylase inhibitors” (Eur J Med Chem, 2021)
